Test results from the NIST ThermoML archive (doi:10.1016/j.fluid.2017.12.001).
Numbers after ± are expanded uncertainties.

Test: xn = mol fraction of the nth substance listed
Conditions: 100.9 kPa, Liquid; for viscosity: Concentric cylinders viscometry; for speed of sound: Single path-length method; for mass density: Vibrating tube method

CCCC(=O)[O-].CC[NH2+]CC [diethylammonium butanoate] + O
Conditions	mass density [kg/m3]	speed of sound [m/s]	viscosity [mPa·s]
283.15 K, x1 = 0.0122	–	–	2.24 ± 0.02
283.15 K, x1 = 0.0123	1003.65 ± 0.4	1576.3 ± 0.23	–
283.15 K, x1 = 0.0451	–	–	6.91 ± 0.04
283.15 K, x1 = 0.0453	1013.08 ± 0.4	1794.6 ± 0.4	–
283.15 K, x1 = 0.0999	–	–	19.26 ± 0.08
283.15 K, x1 = 0.1005	1011.54 ± 0.4	1814.6 ± 0.28	–
283.15 K, x1 = 0.143	–	–	32.03 ± 0.14
283.15 K, x1 = 0.1439	1001.71 ± 0.41	1786.4 ± 0.34	–
283.15 K, x1 = 0.2051	–	–	56.72 ± 0.23
283.15 K, x1 = 0.2067	989.91 ± 0.41	1733.5 ± 0.41	–
283.15 K, x1 = 0.3064	–	–	106.48 ± 1.2
283.15 K, x1 = 0.3096	976.25 ± 0.42	–	–
283.15 K, x1 = 0.4879	–	–	158.58 ± 2.6
283.15 K, x1 = 0.4951	956.67 ± 0.47	1577.4 ± 0.65	–
283.15 K, x1 = 0.6684	–	–	158.29 ± 2.7
283.15 K, x1 = 0.6812	941.81 ± 0.55	1516.2 ± 0.76	–
283.15 K, x1 = 0.7974	930.25 ± 0.62	1494.8 ± 0.84	–
283.15 K, x1 = 0.974	925.8 ± 0.77	1460.5 ± 0.98	130.18 ± 2.1
285.65 K, x1 = 0.0122	–	–	2.07 ± 0.02
285.65 K, x1 = 0.0451	–	–	6.16 ± 0.03
285.65 K, x1 = 0.0999	–	–	16.84 ± 0.07
285.65 K, x1 = 0.143	–	–	27.94 ± 0.12
285.65 K, x1 = 0.2051	–	–	49.1 ± 0.23
285.65 K, x1 = 0.3064	–	–	91.1 ± 0.83
285.65 K, x1 = 0.4879	–	–	135.58 ± 2
285.65 K, x1 = 0.6684	–	–	135.69 ± 2.1
285.65 K, x1 = 0.974	–	–	112.13 ± 1.6
288.15 K, x1 = 0.0122	–	–	1.91 ± 0.02
288.15 K, x1 = 0.0123	1002.55 ± 0.4	1586.3 ± 0.23	–
288.15 K, x1 = 0.0451	–	–	5.5 ± 0.03
288.15 K, x1 = 0.0453	1010.64 ± 0.4	1786.6 ± 0.26	–
288.15 K, x1 = 0.0999	–	–	14.79 ± 0.06
288.15 K, x1 = 0.1005	1007.9 ± 0.4	1802.4 ± 0.29	–
288.15 K, x1 = 0.143	–	–	24.41 ± 0.11
288.15 K, x1 = 0.1439	996.76 ± 0.41	1773 ± 0.34	–
288.15 K, x1 = 0.2051	–	–	42.55 ± 0.2
288.15 K, x1 = 0.2067	985.95 ± 0.41	1718.7 ± 0.41	–
288.15 K, x1 = 0.3064	–	–	78.15 ± 0.57
288.15 K, x1 = 0.3096	972.8 ± 0.42	–	–
288.15 K, x1 = 0.4879	–	–	116.04 ± 1.5
288.15 K, x1 = 0.4951	952.3 ± 0.47	1561.4 ± 0.65	–
288.15 K, x1 = 0.6684	–	–	116.61 ± 1.6
288.15 K, x1 = 0.6812	938.34 ± 0.55	1499.7 ± 0.75	–
288.15 K, x1 = 0.7974	926.65 ± 0.62	1479.8 ± 0.84	–
288.15 K, x1 = 0.974	922.1 ± 0.77	1448.3 ± 0.98	96.9 ± 1.3
290.65 K, x1 = 0.0122	–	–	1.77 ± 0.02
290.65 K, x1 = 0.0451	–	–	4.96 ± 0.03
290.65 K, x1 = 0.0999	–	–	13.09 ± 0.06
290.65 K, x1 = 0.143	–	–	21.48 ± 0.09
290.65 K, x1 = 0.2051	–	–	37.08 ± 0.17
290.65 K, x1 = 0.3064	–	–	67.44 ± 0.39
290.65 K, x1 = 0.4879	–	–	99.81 ± 1.1
290.65 K, x1 = 0.6684	–	–	100.54 ± 1.2
290.65 K, x1 = 0.974	–	–	84.07 ± 1
293.15 K, x1 = 0.0122	–	–	1.64 ± 0.02
293.15 K, x1 = 0.0123	1001.45 ± 0.4	1594.8 ± 0.23	–
293.15 K, x1 = 0.0451	–	–	4.49 ± 0.03
293.15 K, x1 = 0.0453	1008.2 ± 0.4	1779.5 ± 0.26	–
293.15 K, x1 = 0.0999	–	–	11.64 ± 0.05
293.15 K, x1 = 0.1005	1004.13 ± 0.4	1789.3 ± 0.29	–
293.15 K, x1 = 0.143	–	–	18.97 ± 0.08
293.15 K, x1 = 0.1439	992.35 ± 0.41	1759.3 ± 0.34	–
293.15 K, x1 = 0.2051	–	–	32.47 ± 0.15
293.15 K, x1 = 0.2067	984.2 ± 0.41	1705.2 ± 0.41	–
293.15 K, x1 = 0.3064	–	–	58.44 ± 0.27
293.15 K, x1 = 0.3096	969.35 ± 0.42	1629.1 ± 0.49	–
293.15 K, x1 = 0.4879	–	–	86.09 ± 0.8
293.15 K, x1 = 0.4951	949.58 ± 0.47	1539.3 ± 0.63	–
293.15 K, x1 = 0.6684	–	–	87.06 ± 0.9
293.15 K, x1 = 0.6812	937.26 ± 0.55	1485.3 ± 0.75	–
293.15 K, x1 = 0.7974	923.05 ± 0.62	1464.7 ± 0.84	–
293.15 K, x1 = 0.974	918.5 ± 0.76	1433.9 ± 0.98	73.19 ± 0.81
295.65 K, x1 = 0.0122	–	–	1.53 ± 0.02
295.65 K, x1 = 0.0451	–	–	4.05 ± 0.03
295.65 K, x1 = 0.0999	–	–	10.38 ± 0.05
295.65 K, x1 = 0.143	–	–	16.84 ± 0.07
295.65 K, x1 = 0.2051	–	–	28.55 ± 0.13
295.65 K, x1 = 0.3064	–	–	50.88 ± 0.21
295.65 K, x1 = 0.4879	–	–	74.58 ± 0.58
295.65 K, x1 = 0.6684	–	–	75.69 ± 0.69
295.65 K, x1 = 0.974	–	–	63.97 ± 0.66
298.15 K, x1 = 0.0122	–	–	1.43 ± 0.02
298.15 K, x1 = 0.0123	1000.1 ± 0.4	1601.8 ± 0.22	–
298.15 K, x1 = 0.0451	–	–	3.69 ± 0.03
298.15 K, x1 = 0.0453	1005.56 ± 0.4	1770.9 ± 0.25	–
298.15 K, x1 = 0.0999	–	–	9.31 ± 0.04
298.15 K, x1 = 0.1005	1000.56 ± 0.4	1776.6 ± 0.29	–
298.15 K, x1 = 0.143	–	–	15.02 ± 0.07
298.15 K, x1 = 0.1439	988.22 ± 0.41	1745.3 ± 0.34	–
298.15 K, x1 = 0.2051	–	–	25.19 ± 0.12
298.15 K, x1 = 0.2067	979.99 ± 0.41	1690.3 ± 0.41	–
298.15 K, x1 = 0.3064	–	–	44.32 ± 0.23
298.15 K, x1 = 0.3096	965.6 ± 0.42	1613.5 ± 0.49	–
298.15 K, x1 = 0.4879	–	–	64.82 ± 0.43
298.15 K, x1 = 0.4951	945.79 ± 0.47	1523.9 ± 0.63	–
298.15 K, x1 = 0.6684	–	–	66.04 ± 0.53
298.15 K, x1 = 0.6812	933.71 ± 0.55	1468.9 ± 0.75	–
298.15 K, x1 = 0.7974	919.45 ± 0.62	1455.8 ± 0.84	–
298.15 K, x1 = 0.974	914.7 ± 0.76	1417.5 ± 0.98	56.14 ± 0.56
300.65 K, x1 = 0.0122	–	–	1.34 ± 0.02
300.65 K, x1 = 0.0451	–	–	3.36 ± 0.03
300.65 K, x1 = 0.0999	–	–	8.4 ± 0.04
300.65 K, x1 = 0.143	–	–	13.44 ± 0.06
300.65 K, x1 = 0.2051	–	–	22.34 ± 0.1
300.65 K, x1 = 0.3064	–	–	38.93 ± 0.2
300.65 K, x1 = 0.4879	–	–	56.68 ± 0.33
300.65 K, x1 = 0.6684	–	–	57.86 ± 0.43
300.65 K, x1 = 0.974	–	–	49.5 ± 0.51
303.15 K, x1 = 0.0122	–	–	1.26 ± 0.02
303.15 K, x1 = 0.0123	998.8 ± 0.4	1607.5 ± 0.22	–
303.15 K, x1 = 0.0451	–	–	3.08 ± 0.02
303.15 K, x1 = 0.0453	1002.83 ± 0.4	1762.1 ± 0.25	–
303.15 K, x1 = 0.0999	–	–	7.62 ± 0.04
303.15 K, x1 = 0.1005	997.23 ± 0.4	1763.5 ± 0.29	–
303.15 K, x1 = 0.143	–	–	12.08 ± 0.05
303.15 K, x1 = 0.1439	984.45 ± 0.41	1731.1 ± 0.34	–
303.15 K, x1 = 0.2051	–	–	19.91 ± 0.09
303.15 K, x1 = 0.2067	976.3 ± 0.41	1675.2 ± 0.41	–
303.15 K, x1 = 0.3064	–	–	34.33 ± 0.18
303.15 K, x1 = 0.3096	960.9 ± 0.42	1597.6 ± 0.49	–
303.15 K, x1 = 0.4879	–	–	49.68 ± 0.32
303.15 K, x1 = 0.4951	941.96 ± 0.47	1509.1 ± 0.63	–
303.15 K, x1 = 0.6684	–	–	50.88 ± 0.36
303.15 K, x1 = 0.6812	930.52 ± 0.55	1452.3 ± 0.75	–
303.15 K, x1 = 0.7974	915.75 ± 0.62	1439.9 ± 0.84	–
303.15 K, x1 = 0.974	910.9 ± 0.76	1400.2 ± 0.98	43.73 ± 0.45
305.65 K, x1 = 0.0122	–	–	1.19 ± 0.02
305.65 K, x1 = 0.0451	–	–	2.84 ± 0.02
305.65 K, x1 = 0.0999	–	–	6.89 ± 0.04
305.65 K, x1 = 0.143	–	–	10.89 ± 0.05
305.65 K, x1 = 0.2051	–	–	17.8 ± 0.08
305.65 K, x1 = 0.3064	–	–	30.43 ± 0.16
305.65 K, x1 = 0.4879	–	–	43.74 ± 0.28
305.65 K, x1 = 0.6684	–	–	44.91 ± 0.35
305.65 K, x1 = 0.974	–	–	38.76 ± 0.4
308.15 K, x1 = 0.0122	–	–	1.12 ± 0.02
308.15 K, x1 = 0.0123	–	1611.9 ± 0.22	–
308.15 K, x1 = 0.0451	–	–	2.62 ± 0.02
308.15 K, x1 = 0.0453	–	1753.1 ± 0.25	–
308.15 K, x1 = 0.0999	–	–	6.28 ± 0.03
308.15 K, x1 = 0.1005	–	1750.2 ± 0.29	–
308.15 K, x1 = 0.143	–	–	9.83 ± 0.05
308.15 K, x1 = 0.1439	–	1716.8 ± 0.35	–
308.15 K, x1 = 0.2051	–	–	15.99 ± 0.07
308.15 K, x1 = 0.3064	–	–	27.04 ± 0.14
308.15 K, x1 = 0.4879	–	–	38.47 ± 0.24
308.15 K, x1 = 0.6684	–	–	39.77 ± 0.31
308.15 K, x1 = 0.974	–	–	34.5 ± 0.36
